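Here, GI50 denotes the concentration required for 50% inhibition of growth. At the TGI there is no net growth.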
Tests used:
Assay in all cases: DTP human tumour cell line panel, 384-well format
[1] = tested on: CAKI-1 renal
[2] = tested on: OVCAR-4 ovarian
[3] = tested on: K-562 leukemia
[4] = tested on: OVCAR-5 ovarian
[5] = tested on: MOLT-4 leukemia
[6] = tested on: HCT-116 colon
[7] = tested on: HS 578T breast
[8] = tested on: HOP-62 NSCLC
[9] = tested on: SNB-75 CNS
[10] = tested on: IGROV1 ovarian
[11] = tested on: COLO 205 colon
[12] = tested on: NCI-H460 NSCLC
[13] = tested on: HT29 colon
[14] = tested on: MDA-MB-435 melanoma
[15] = tested on: HOP-92 NSCLC
[16] = tested on: NCI-H522 lung
[17] = tested on: UACC-257 melanoma
[18] = tested on: EKVX NSCLC
[19] = tested on: BT-549 breast
[20] = tested on: SN12C renal
[21] = tested on: UO-31 renal
[22] = tested on: SNB-19 CNS
[23] = tested on: KM12 colon
[24] = tested on: A498 renal
[25] = tested on: SK-MEL-28 melanoma
[26] = tested on: SF-295 CNS
[27] = tested on: OVCAR-8 ovarian
[28] = tested on: SK-MEL-5 melanoma
[29] = tested on: SF-268 CNS
[30] = tested on: SW-620 colon
[31] = tested on: OVCAR-3 ovarian
[32] = tested on: CCRF-CEM leukemia
[33] = tested on: MDA-MB-468 breast
[34] = tested on: HCC-2998 colon
[35] = tested on: HCT-15 colon
[36] = tested on: MDA-MB-231 breast
[37] = tested on: ACHN renal
[38] = tested on: SK-OV-3 ovarian
[39] = tested on: RPMI-8226 leukemia
[40] = tested on: PC-3 prostate
[41] = tested on: MCF7 breast
[42] = tested on: DU-145 prostate
[43] = tested on: MALME-3M melanoma
[44] = tested on: HL-60(TB) leukemia
[45] = tested on: RXF 393 renal
[46] = tested on: NCI-H23 lung
[47] = tested on: SF-539 CNS
[48] = tested on: UACC-62 melanoma
[49] = tested on: A549 NSCLC
[50] = tested on: NCI/ADR-RES ovarian
[51] = tested on: NCI-H226 lung
[52] = tested on: 786-0 renal
[53] = tested on: NCI-H322M lung
[54] = tested on: TK-10 renal
[55] = tested on: M14 melanoma
[56] = tested on: U251 glioblastoma
[57] = tested on: LOX IMVI melanoma
[58] = tested on: T-47D breast
[59] = tested on: SR leukemia

Work on `C=CC(=O)Nc1cc2c(Nc3ccc(F)c(Cl)c3)ncnc2cc1OCCCN1CCOCC1` yielded a GI50 [1] of 0.462 µM, a TGI [1] of 1.99 µM and a GI50 [2] of 2.02 µM. The TGI [2] was 6 µM, the GI50 [3] was 1.21 µM and the TGI [3] was 2.49 µM. The GI50 [4] was 1.74 µM, the TGI [4] was 13.6 µM and the GI50 [5] was 0.933 µM. The TGI [5] was 2.15 µM, the GI50 [6] was 1.76 µM and the TGI [6] was 3.26 µM. The GI50 [7] was 1.22 µM, the TGI [7] was 2.49 µM and the GI50 [8] was 1.64 µM. For the same compound, the TGI [8] was 3.7 µM, the GI50 [9] was 1.12 µM and the TGI [9] was 2.91 µM. For the same compound, the GI50 [10] was under 0.01 µM, the TGI [10] was 0.838 µM and the GI50 [11] was 1.6 µM. The TGI [11] was 3.11 µM, the GI50 [12] was 1.51 µM and the TGI [12] was 2.9 µM. For the same compound, the GI50 [13] was 1.55 µM, the TGI [13] was 3 µM and the GI50 [14] was 2.42 µM. It also gave a TGI [14] of 5.09 µM, a GI50 [15] of 1.4 µM and a TGI [15] of 2.93 µM. It also gave a GI50 [16] of 0.0653 µM, a TGI [16] of 0.454 µM and a GI50 [17] of 1.31 µM. It also gave a TGI [17] of 2.62 µM, a GI50 [18] of 0.0507 µM and a TGI [18] of 1.93 µM. For the same compound, the GI50 [19] was 1.06 µM, the TGI [19] was 2.27 µM and the GI50 [20] was 0.267 µM. The TGI [20] was 1.91 µM, the GI50 [21] was 1.17 µM and the TGI [21] was 4.22 µM. For the same compound, the GI50 [22] was 1.85 µM, the TGI [22] was 4.14 µM and the GI50 [23] was 1.58 µM. The TGI [23] was 3.02 µM, the GI50 [24] was 0.424 µM and the TGI [24] was 1.91 µM. The GI50 [25] was 2.03 µM, the TGI [25] was 3.52 µM and the GI50 [26] was 4.62 µM. It also gave a TGI [26] of 15.8 µM, a GI50 [27] of 1.44 µM and a TGI [27] of 2.79 µM. For the same compound, the GI50 [28] was 1.41 µM, the TGI [28] was 2.75 µM and the GI50 [29] was 0.209 µM. It also gave a TGI [29] of 1.65 µM, a GI50 [30] of 1.69 µM and a TGI [30] of 3.08 µM. It also gave a GI50 [31] of 1.03 µM, a TGI [31] of 2.22 µM and a GI50 [32] of 1.2 µM. The TGI [32] was 2.46 µM, the GI50 [33] was under 0.01 µM and the GI50 [34] was 1.32 µM. It also gave a TGI [34] of 2.63 µM, a GI50 [35] of 1.19 µM and a TGI [35] of 2.47 µM. For the same compound, the GI50 [36] was 1.53 µM, the TGI [36] was 3.77 µM and the GI50 [37] was 0.0131 µM. It also gave a TGI [37] of 1.66 µM, a GI50 [38] of 1.06 µM and a TGI [38] of 2.67 µM. It also gave a GI50 [39] of 1.22 µM, a TGI [39] of 2.49 µM and a GI50 [40] of 1.69 µM. For the same compound, the TGI [40] was 3.11 µM, the GI50 [41] was 1.14 µM and the TGI [41] was 2.52 µM. It also gave a GI50 [42] of 1.07 µM, a TGI [42] of 4.19 µM and a GI50 [43] of 1.72 µM. For the same compound, the TGI [43] was 3.13 µM, the GI50 [44] was 1.22 µM and the TGI [44] was 2.5 µM. It also gave a GI50 [45] of 0.62 µM, a TGI [45] of 2 µM and a GI50 [46] of 1.47 µM. For the same compound, the TGI [46] was 2.8 µM, the GI50 [47] was 1.37 µM and the TGI [47] was 2.68 µM. For the same compound, the GI50 [48] was 1.45 µM, the TGI [48] was 2.78 µM and the GI50 [49] was 1.32 µM. For the same compound, the TGI [49] was 2.71 µM, the GI50 [50] was 1.45 µM and the TGI [50] was 2.87 µM. It also gave a GI50 [51] of 1.96 µM, a TGI [51] of 4.7 µM and a GI50 [52] of 1.16 µM. The TGI [52] was 2.49 µM, the GI50 [53] was under 0.01 µM and the TGI [53] was 1.29 µM. The GI50 [54] was 0.0368 µM, the TGI [54] was 2.09 µM and the GI50 [55] was 1.58 µM. It also gave a TGI [55] of 2.95 µM, a GI50 [56] of 1.91 µM and a TGI [56] of 3.79 µM. The GI50 [57] was 1.51 µM, the TGI [57] was 2.87 µM and the GI50 [58] was 0.0547 µM. The TGI [58] was 1.44 µM.

`COc1cc2ncnc(Nc3ccc(F)c(Cl)c3)c2cc1NC(=O)/C=C/CN1CCCCC1` was tested, and the GI50 [1] was 0.618 µM, the TGI [1] was 2.14 µM and the GI50 [2] was 1.18 µM. It also gave a TGI [2] of 2.47 µM, a GI50 [4] of 1.66 µM and a TGI [4] of 5.04 µM. The GI50 [5] was 0.803 µM, the TGI [5] was 2.19 µM and the GI50 [6] was 1.57 µM. The TGI [6] was 2.98 µM, the GI50 [7] was 0.951 µM and the TGI [7] was 2.81 µM. For the same compound, the GI50 [8] was 4.21 µM, the TGI [8] was 5.84 µM and the GI50 [9] was 0.775 µM. The TGI [9] was 3.01 µM, the GI50 [10] was under 0.0273 µM and the TGI [10] was 1.56 µM. It also gave a GI50 [11] of 4.04 µM, a TGI [11] of 5.48 µM and a GI50 [12] of 1.72 µM. It also gave a TGI [12] of 3.41 µM, a GI50 [14] of 1.78 µM and a TGI [14] of 3.26 µM. For the same compound, the GI50 [15] was 1.16 µM, the TGI [15] was 2.4 µM and the GI50 [16] was under 0.0452 µM. It also gave a TGI [16] of 0.946 µM, a GI50 [17] of 1.63 µM and a TGI [17] of 3.08 µM. The TGI [18] was 3.81 µM, the GI50 [19] was 1.01 µM and the TGI [19] was 2.43 µM. The GI50 [20] was 0.595 µM, the TGI [20] was 2.24 µM and the GI50 [21] was 0.639 µM. It also gave a TGI [21] of 2.2 µM, a GI50 [22] of 2.09 µM and a TGI [22] of 6.56 µM. The GI50 [23] was 2.05 µM, the TGI [23] was 4.37 µM and the GI50 [24] was 0.471 µM. The TGI [24] was 2.19 µM, the GI50 [25] was 1.62 µM and the TGI [25] was 2.98 µM. It also gave a GI50 [26] of 4.83 µM, a TGI [26] of 7.34 µM and a GI50 [27] of 3.43 µM. The TGI [27] was 4.92 µM, the GI50 [28] was 1.6 µM and the TGI [28] was 3.67 µM. The GI50 [29] was 1.68 µM, the TGI [29] was 4.33 µM and the GI50 [30] was 1.62 µM. For the same compound, the TGI [30] was 3.02 µM, the GI50 [31] was 0.586 µM and the TGI [31] was 2.04 µM. For the same compound, the GI50 [32] was 1.92 µM, the TGI [32] was 3.37 µM and the GI50 [33] was under 0.01 µM. It also gave a TGI [33] of under 0.0199 µM, a GI50 [34] of 5.29 µM and a GI50 [35] of 1.18 µM. The TGI [35] was 4.17 µM, the GI50 [36] was 1.23 µM and the TGI [36] was 2.49 µM. For the same compound, the GI50 [59] was 0.883 µM, the TGI [59] was 2.21 µM and the TGI [37] was 1.87 µM. It also gave a GI50 [38] of 0.619 µM, a TGI [38] of 5.93 µM and a GI50 [39] of 1.51 µM. The TGI [39] was 2.85 µM, the GI50 [40] was 1.67 µM and the TGI [40] was 3.18 µM. The GI50 [41] was 3.17 µM, the TGI [41] was 4.96 µM and the GI50 [42] was 0.395 µM. For the same compound, the TGI [42] was 2.14 µM, the GI50 [43] was 1.52 µM and the TGI [43] was 2.86 µM. For the same compound, the GI50 [44] was 0.973 µM, the TGI [44] was 2.34 µM and the GI50 [45] was 1.01 µM. For the same compound, the TGI [45] was 3.05 µM, the GI50 [46] was 3.17 µM and the TGI [46] was 5.33 µM. It also gave a GI50 [47] of 1.65 µM, a TGI [47] of 3.03 µM and a GI50 [48] of 1.59 µM. The TGI [48] was 2.96 µM, the GI50 [49] was 3.31 µM and the TGI [49] was 4.86 µM. It also gave a GI50 [50] of 1.14 µM, a TGI [50] of 2.37 µM and a GI50 [51] of 3.53 µM. For the same compound, the TGI [51] was 5 µM, the GI50 [52] was 0.784 µM and the TGI [52] was 2.29 µM. The GI50 [53] was under 0.0221 µM, the TGI [53] was 0.15 µM and the GI50 [54] was under 0.0192 µM. The TGI [54] was 3.92 µM, the GI50 [55] was 1.74 µM and the TGI [55] was 3.14 µM. It also gave a GI50 [56] of 4.09 µM, a TGI [56] of 5.53 µM and a GI50 [57] of 2.54 µM. For the same compound, the TGI [57] was 5.01 µM and the TGI [58] was 3.92 µM.

From PubChem BioAssay (NCI)
